Data published in BindingDB's records for doi:10.1016/j.bmc.2013.03.060 (Meijo University, 2013).
pIC50: −log10 of the molar value.

Biological target: T1, Androgen receptor (Homo sapiens, UniProt P10275)
T1 sequence (P10275 whole entry): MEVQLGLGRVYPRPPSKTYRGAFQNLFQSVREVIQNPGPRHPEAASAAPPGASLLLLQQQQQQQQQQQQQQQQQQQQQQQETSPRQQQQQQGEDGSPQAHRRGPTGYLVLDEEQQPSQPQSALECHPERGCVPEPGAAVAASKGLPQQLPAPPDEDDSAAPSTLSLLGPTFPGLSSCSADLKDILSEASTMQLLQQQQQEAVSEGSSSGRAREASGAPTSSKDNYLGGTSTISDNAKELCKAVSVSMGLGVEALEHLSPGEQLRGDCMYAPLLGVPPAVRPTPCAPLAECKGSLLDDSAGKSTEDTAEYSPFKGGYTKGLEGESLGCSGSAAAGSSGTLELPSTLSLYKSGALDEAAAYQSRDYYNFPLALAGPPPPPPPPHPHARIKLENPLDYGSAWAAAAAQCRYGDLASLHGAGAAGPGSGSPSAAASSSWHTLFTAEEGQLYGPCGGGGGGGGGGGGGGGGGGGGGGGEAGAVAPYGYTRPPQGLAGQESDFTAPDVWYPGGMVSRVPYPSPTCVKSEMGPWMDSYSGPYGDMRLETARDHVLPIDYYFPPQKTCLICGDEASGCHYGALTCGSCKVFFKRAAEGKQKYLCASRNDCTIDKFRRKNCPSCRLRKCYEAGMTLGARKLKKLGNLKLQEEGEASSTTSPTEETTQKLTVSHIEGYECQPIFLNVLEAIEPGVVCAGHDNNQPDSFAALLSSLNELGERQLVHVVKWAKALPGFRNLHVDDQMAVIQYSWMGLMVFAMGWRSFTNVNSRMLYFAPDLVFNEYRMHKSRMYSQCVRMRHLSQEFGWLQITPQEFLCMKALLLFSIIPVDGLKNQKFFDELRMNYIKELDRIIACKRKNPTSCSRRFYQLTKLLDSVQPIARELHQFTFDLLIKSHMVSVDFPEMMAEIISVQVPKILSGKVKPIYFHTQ
Assay: Antagonist activity at human androgen receptor LBD expressed in human MDA-kb2 cells by luciferase reporter gene assay

| Structure (SMILES) | pIC50 |
| --- | --- |
| CN(C)c1ccc(-c2cc(O)c3c(=O)cccc-3o2)cc1 | 6.07 |
| O=c1cccc2oc(-c3ccc(O)cc3)cc(O)c1-2 [5-hydroxy-2-(4-hydroxyphenyl)-4H-chromen-4-one] | 6.07 |
